The target in the test is T1, human GPR40 (Homo sapiens, UniProt O14842).
T1 construct: expressed in transfected cells; host or cells: HEK cells stably expressing the aequorin reporter
The test is described as follows: Inositol Phosphate Turnover (IP1) Assay 3. The class given is cell-based. The settings on record: HEK cells stably expressing human GPR40. As for the experimental part:
Human and mouse GPR40 stable cell-lines were generated in CHO cells stably expressing NFAT BLA (Beta-lactamase). A human GPR40 stable cell-line was generated in HEK cells stably expressing the aequorin expressing reporter. The expression plasmids were transfected using lipofectamine (Life Technologies) following manufacturer's instructions. Stable cell-lines were generated following drug selection.
Inositol Phosphate Turnover (IP1) Assay 3:
The assay was performed in 384-well format. HEK cells stably expressing human GPR40 were plated at 7500 cells per well in growth medium (DMEM/10% fetal calf serum). Cell plates were then incubated 16 hours at 37 degrees in a 5% CO2 incubator.
Measurement of Inositol Phosphate Turnover (IP) was performed using the CisBio IP-One kit (Part number 62IPAPEB). After the 16 hour incubation, the growth media was removed by centrifugation using the BlueWasher (AusWasher GUI Ver. v1.0.1.8) Protocol #21—“Light Dry” and 10 ul of stimulation buffer (prepared as described in the kit) was added to each well. In a separate plate, compounds were diluted in DMSO (200-fold over the final concentration in the assay well) and 50 nl was acoustically transferred to the appropriate well in the assay cell plate. The plates were then incubated for 60 minutes at 37 degrees in a 5% CO2 incubator. 10 ul of detection buffer (also prepared as described in the IP-One kit) was added to each well and the plates were incubated at rt for 60 minutes in the dark. The plates were then read in a Perkin Elmer EnVision or equivalent reader able to measure FRET. Fluorescent ratio of emission at 665 and 620 nm was then converted to IP1 concentration by back calculating from an IP1 standard curve prepared at the time of the assay. Data is normalized to % activity using a reference compound and EC50s determined using a standard 4-parameter fit.

T1 sequence (O14842 whole entry): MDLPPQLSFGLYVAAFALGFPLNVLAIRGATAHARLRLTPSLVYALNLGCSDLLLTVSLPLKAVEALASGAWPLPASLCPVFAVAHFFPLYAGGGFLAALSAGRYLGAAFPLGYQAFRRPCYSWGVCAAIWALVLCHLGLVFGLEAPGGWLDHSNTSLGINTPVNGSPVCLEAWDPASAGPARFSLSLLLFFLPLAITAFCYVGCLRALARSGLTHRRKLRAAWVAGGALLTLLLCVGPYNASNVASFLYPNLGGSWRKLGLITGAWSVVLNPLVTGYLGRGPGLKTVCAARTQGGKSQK

Regarding `COc1cc(-c2ccc(C3CCc4ccc([C@H](C5CCC5)[C@H](C)C(=O)O)cc4O3)cc2CN2CCCCC2)c(F)cn1` (single isomer, unassigned) [Example 105], the midpoint of the response, the EC50, lay at 0.1 nM.

Regarding `CCN(Cc1cc(C2CCc3ccc([C@H](C4CC4)[C@H](C)C(=O)O)cc3O2)ccc1-c1cc(OC)ncc1C#N)C(C)C` (stereo partly drawn) [Example 294], the EC50 was 0.5 nM.

Compound `COc1cc(-c2ccc(C3CCc4ccc([C@H](C5CC5)[C@H](C)C(=O)O)cc4O3)cc2CN(C)C(C)(C)C)c(C#N)cn1` (single isomer, unassigned) [Example 193] yielded an EC50 of 1.5 nM.

The compound `COc1cc(-c2ccc(C3CCc4ccc([C@H](C5CC5)[C@H](C)C(=O)O)cc4O3)c(CN3[C@H](C)CC[C@H]3C)c2)ccn1` (single isomer, unassigned) [Example 116d] yielded an EC50 of 387 nM.

In turn, `COc1cc(-c2ccc(C3CCc4ccc([C@H](C5CC5)[C@H](C)C(=O)O)cc4O3)cc2CN2C(C)(C)CCCC2(C)C)c(F)cn1` (stereo partly drawn) [Example 230] returned an EC50 of 0.09 nM.

In turn, `COc1cc(-c2ccc(C3CCc4ccc([C@H](C5CC5)[C@H](C)C(=O)O)cc4O3)c(CN3CCCCC34CC4)c2)ccn1` (single isomer, unassigned) [Example 224] displayed an EC50 of 11 nM.

With `COc1cc(-c2ccc(C3CCc4ccc([C@H](C5CC5)[C@H](C)C(=O)O)cc4O3)cc2CN2[C@H]3CC[C@@H]2CC3)ccn1` (stereo partly drawn) [Example 289], the EC50 turned out to be 72 nM.

In turn, `COc1cc(-c2ccc(C3CCc4ccc([C@H](C5CC5)[C@H](C)C(=O)O)c(F)c4O3)cc2CN2CCCCC23CC3)c(F)cn1` (single isomer, unassigned) [Example 203] gave an EC50 of 0.16 nM.

`COc1cc(-c2ccc(C3CCc4ccc([C@H](C5CC5)[C@H](C)C(=O)O)cc4O3)cc2CN2CC3CC3C2)c(C#N)cn1` (single isomer, unassigned) [Example 192] displayed an EC50 of 0.3 nM.

`COc1cc(-c2ccc(C3CCc4ccc([C@H](C5CC5)[C@H](C)C(=O)O)cc4O3)c(CN(C)C(C)(C)C)c2)c(F)cn1` (single isomer, unassigned) [Example 125a] came in with an EC50 of 0.3 nM.

Take `COc1cc(-c2ccc(C3CCc4ccc([C@H](C5CC5)[C@H](C)C(=O)O)c(F)c4O3)cc2CN2[C@H](C)CC[C@H]2C)c(F)cn1` (single isomer, unassigned) [Example 208]: a half-maximal response (EC50) required 0.73 nM.

`COc1cc(-c2ccc(C3CCc4ccc([C@H](C5CCC5)[C@H](C)C(=O)O)cc4O3)cc2CN2[C@H](C)CC[C@H]2C)c(F)cn1` (single isomer, unassigned) [Example 97] showed an EC50 of 0.19 nM.

On to `CCN(CC)Cc1cc(C2CCc3ccc([C@H](C4CC4)[C@H](C)C(=O)O)cc3O2)ncc1-c1cc(OC)ncc1F` (single isomer, unassigned) [Example 86], for which the EC50 came out at 1.4 nM.

For `C[C@H](C(=O)O)[C@H](c1ccc2c(c1)OC(c1ccc(-c3cc(O)ncc3F)c(CN(C)C3CCOC3)c1)CC2)C1CC1` (stereo partly drawn) [Example 268a], the response was half-maximal at 0.6 nM (EC50).

As to `COc1cc(-c2ccc(C3CCc4ccc([C@H](C5CC5)[C@H](C)C(=O)O)cc4O3)c(CN(C)C(C)(C)C)c2)ccn1` (single isomer, unassigned) [Example 114a], the EC50 was determined as 1.5 nM.

In turn, `COc1cc(-c2ccc(C3CCc4ccc([C@H](C5CC5)[C@H](C)C(=O)O)cc4O3)cc2CN2CCC(C#N)CC2)c(F)cn1` (stereo partly drawn) [Example 271] gave an EC50 of 2.6 nM.

`COc1cc(-c2ccc(C3CCc4ccc([C@H](C5CC5)[C@H](C)C(=O)O)cc4O3)c(CN3CCCC3(C)C)c2)ccn1` (single isomer, unassigned) [Example 111a] registered a half-maximal effective concentration (EC50) of 3.2 nM.

With `COc1cc(-c2cc(F)c(C3CCc4ccc([C@H](C5CC5)[C@H](C)C(=O)O)cc4O3)cc2CN2CCCCC23CC3)ccn1` (single isomer, unassigned) [Example 188], a half-maximal response (EC50) required 0.7 nM.

Compound `COc1cc(-c2ccc(C3CCc4ccc([C@H](C5CC5)[C@H](C)C(=O)O)cc4O3)cc2CN2CCC3CC32)c(F)cn1` (single isomer, unassigned) [Example 256a] displayed an EC50 of 0.6 nM.

`C[C@H](C(=O)O)[C@H](c1ccc2c(c1)OC(c1ccc(-c3cc(O)ncc3C#N)c(CN3CCCCC34CC4)c1)CC2)C1CC1` (stereo partly drawn) [Example 295] yielded an EC50 of 85 nM.

Take `COc1cc(-c2ccc(C3CCc4ccc([C@H](C5CC5)[C@H](C)C(=O)O)cc4O3)c(CN3CCCC[C@H]3C)c2)ccn1` (single isomer, unassigned) [Example 120a]: the response was half-maximal at 0.4 nM (EC50).

The compound `COc1ccc(F)c(-c2ccc(C3CCc4ccc([C@H](C5CC5)[C@H](C)C(=O)O)cc4O3)cc2CN2CCCCC23CC3)n1` (single isomer, unassigned) [Example 189] yielded an EC50 of 5.1 nM.

Compound `CCOc1cc(-c2ccc(C3CCc4ccc([C@H](C5CC5)[C@H](C)C(=O)O)cc4O3)c(CN(C)C(C)(C)C)c2)c(F)cn1` (single isomer, unassigned) [Example 132a] showed an EC50 of 1.8 nM.

In turn, `CCC1CCCCN1Cc1cc(C2CCc3ccc(C(C4CC4)C(C)C(=O)O)cc3O2)ccc1-c1ccnc(OC)c1` (single isomer, unassigned) [Example 258b] yielded an EC50 of 2.2 nM.

As to `COc1cc(-c2ccc(C3CCc4ccc([C@H](C5CC5)[C@H](C)C(=O)O)cc4O3)cc2CN2CCC[C@@H]2C)ccn1` (stereo partly drawn) [Example 279], the midpoint of the response, the EC50, lay at 30 nM.

Compound `COc1cc(-c2ccc(C3CCc4ccc([C@H](C5CC5)[C@H](C)C(=O)O)c(F)c4O3)cc2CN2CCCCC2)c(F)cn1` (single isomer, unassigned) [Example 201] came in with an EC50 of 4.4 nM.

As to `COc1cc(-c2ccc(C3CCc4ccc([C@H](C5CC5)[C@H](C)C(=O)O)cc4O3)cc2CN2[C@H](C)CC[C@@H]2C)ccn1` (stereo partly drawn) [Example 275], the EC50 stood at 2.8 nM.

`COc1cc(-c2ccc(C3CCc4ccc([C@H](C5CC5)[C@H](C)C(=O)O)cc4O3)cc2CN2C3CCCC2CC3)ccn1` (stereo partly drawn) [Example 290] came in with an EC50 of 22 nM.

The compound `CCN(Cc1cc(-c2ccnc(OC)c2)ccc1C1CCc2ccc([C@H](C3CC3)[C@H](C)C(=O)O)cc2O1)C(C)C` (single isomer, unassigned) [Example 113b] registered an EC50 of 14 nM.

In the case of `COc1cc(-c2ccc(C3CCc4ccc([C@H](C5CC5)[C@H](C)C(=O)O)cc4O3)cc2CN2C(C)(C)CCCC2(C)C)ccn1` (stereo partly drawn) [Example 238], the EC50 worked out at 0.14 nM.

`CCN(Cc1cc(-c2cc(OC)ncc2F)ccc1C1CCc2ccc([C@H](C3CC3)[C@H](C)C(=O)O)cc2O1)C(C)C` (single isomer, unassigned) [Example 124b] showed an EC50 of 16 nM.

Take `COc1cc(-c2ccc(C3CCc4ccc([C@H](C5CC5)[C@H](C)C(=O)O)cc4O3)c(CN3[C@H](C)CC[C@@H]3C)c2)ccn1` (single isomer, unassigned) [Example 122b]: the midpoint of the response, the EC50, lay at 190 nM.

For `COc1cc(-c2ccc(C3CCc4ccc([C@H](C5CC5)[C@H](C)C(=O)O)cc4O3)c(CN3CCC[C@@H]3C)c2)c(F)cn1` (single isomer, unassigned) [Example 129a], the EC50 was 0.25 nM.

The compound `COc1cc(-c2ccc(C3CCc4ccc([C@H](C5CC5)[C@H](C)C(=O)O)cc4O3)cc2CN2CCC(C)(C)C2)c(F)cn1` (stereo partly drawn) [Example 266] showed an EC50 of 0.1 nM.

`COc1cc(-c2ccc(C3CCc4ccc([C@H](C5CCC5)[C@H](C)C(=O)O)cc4O3)cc2CN2CCCCC2)c(F)cn1` (single isomer, unassigned) [Example 104] came in with an EC50 of 1.1 nM.

With `COc1cc(-c2ccc(C3CCc4ccc([C@H](C5CC5)[C@H](C)C(=O)O)cc4O3)c(CN3[C@H](C)CC[C@H]3C)c2)ccn1` (single isomer, unassigned) [Example 116b], the EC50 was 1 nM.

On to `COc1cc(-c2ccc(C3CCc4ccc([C@H](C5CC5)[C@H](C)C(=O)O)cc4O3)cc2C(CN2CCCC2)OC)ccn1` (single isomer, unassigned) [Example 177, (2S, 3R)-3-cyclopropyl-3-((R or S)-2-(3-((R or S)-1-methoxy-2-(pyrrolidin-1-yl)ethyl)-4-(2-methoxypyridin-4-yl)phenylchroman-7-yl)-2-methylpropanoic acid], for which a half-maximal effect (EC50) was put at 231 nM.

`COc1cc(-c2ccc(C3CCc4ccc([C@H](C5CC5)[C@H](C)C(=O)O)cc4O3)cc2CN2[C@H](C)CCC[C@H]2C)c(F)cn1` (stereo partly drawn) [Example 257]: the midpoint of the response, the EC50, lay at 0.4 nM.

`COc1cc(-c2ccc(C3CCc4ccc([C@H](C5CC5)[C@H](C)C(=O)O)cc4O3)cc2CN2CCCC3(CC3)C2)ccn1` (stereo partly drawn) [Example 277] showed an EC50 of 1.9 nM.

Take `COc1cc(-c2ccc(C3CCc4ccc([C@H](C5CC5)[C@H](C)C(=O)O)cc4O3)cc2CN2CCCC3(CC3)C2)c(F)cn1` (stereo partly drawn) [Example 260]: the midpoint of the response, the EC50, lay at 0.9 nM.

For `COc1cc(-c2ccc(C3CCc4ccc([C@H](C5CC5)[C@H](C)C(=O)O)cc4O3)cc2CN2C3CCCC2CC3)c(F)cn1` (stereo partly drawn) [Example 270], a half-maximal effect (EC50) was put at 0.9 nM.

For the compound `COc1cc(-c2ccc(C3CCc4ccc([C@H](C5CC5)[C@H](C)C(=O)O)cc4O3)c(CN3CCCCC3(C)C)c2)c(F)cn1` (mixture of isomers) [Example 128], it took 0.16 nM to reach a half-maximal effect (EC50).

Usually EC50 stands for the concentration at which the effect is half-maximal. Read a low EC50 as greater potency.

These data come from patent US10968193B2, “Antidiabetic bicyclic compounds” (Merck Sharp & Dohme Corp., priority 2014, dated 2021).
